Reference: patent US8007835B2, “Hibiscusanthocyanins for inhibiting cancers” (Aiken Biotechnology International Co., Ltd., priority 2005, dated 2011)

Tests used:
c-Jun = experiment: Western blot, phosphorylated c-Jun in HL-60 cells; type: cell-based, human; conditions: pretreatment with SB203580 (50 AM), then HAs 3 mg/ml 6 h
Method: (§1) The medium was removed, and the cells were rinsed with TBS at room temperature. Then 500 μl of cold RIPA buffer (1% NP-40, 50 mM Tris-base, 0.1% SDS, 0.5% deoxycholic acid, and 150 mM NaCl, pH 7.5) with three kinds of proteinase freshly added (10 μg/ml leupeptin, 10 μg/ml PMSF, and 17 μg/ml sodium orthovanadate) were used. After sonication for 1 h at 4° C., a centrifugation (10,000×g) of cell lysate was performed for 10 min at 4° C. The supernatant (50 μg protein) was mixed with an equal volume of electrophoresis sample buffer and boiled for 10 min, which was then subjected to SDS-polyacrylamide gel electrophoresis using a 10% running gel, and electroblotted to nitrocellulose membranes (Millipore, Bedford, Mass., USA). Nonspecific binding was blocked by incubation of the membrane with TBS containing 1% (W/V) nonfat dry milk and 0.1% (v/v) Tween-20 (TBST) for more than 2 h. Membranes were washed with TBST three times for 10 min and incubated with appropriate dilution of primary antibody in TBST for 2 h. Membranes were then extensively washed with TBST before being incubated with appropriate horseradish peroxidase-conjugated secondary antibody for 1 h. After washing the membrane three times, 10 min each in TBST, detection was performed using ECLWestern blotting detection reagents (Amersham, Arlington Heights, Ill., USA).

Fas = experiment: Western blot, Fas expression in HL-60 cells; type: cell-based, human; conditions: pretreatment with SB203580 (50 AM), then HAs 3 mg/ml 6 h
Method: as §1

FasL = experiment: Western blot, FasL expression in HL-60 cells; type: cell-based, human; conditions: pretreatment with SB203580 (50 AM), then HAs 3 mg/ml 6 h
Method: as §1

HL-60 cells = experiment: Flow cytometry (PI) cell cycle and quantification of apoptosis; conditions: for effect of inhibitor on HAs-induced apoptosis (cytotoxic action of HAs): PD98059 25 AM, SP600125 20 AM, wortmannin 1 AM, then HAs 3 mg/ml 24 h
Method: Flow cytometric analysis of HL-60 cells was performed on the 24-h cultures using a FACScan. The cells of harvest were centrifuged at 1000 rpm for 5 min at room temperature. Thereafter, cells were washed once with Tris-buffered saline (TBS). Then cell suspension was centrifuged again (1000 rpm, 5 min) and resuspended in 70% ethanol. After incubation at −20 for at least 24 h, the cells were resuspended in 1 ml of cell cycle assay buffer [50 μg/ml propidium iodide (PI), 50 μg/ml RNase A, and 0.1% Triton X-100], and it was incubated for 15 min in darkness. Propidium iodide (Sigma) was excited at 488 nm, and fluorescence signal was subjected to logarithmic amplification with PI fluorescence (red) being detected above 600 nm. Cell cycle distribution is presented as the number of cells versus the amount of DNA as indicated by the intensity of fluorescence, and the extent of apoptosis was determined by counting cells of DNA content below the G0/G1 peak.

Compound | c-Jun (phospho-c-Jun) expression (c-Jun) | Fas expression (Fas) | FasL expression (FasL) | reduction in the sub-G1 phase compared to HAs alone (HL-60 cells; 50 AM SB203580 followed by 24-h exposure to HAs (3 mg/ml)) [%] | sub-G1 phase (HL-60 cells; 50 AM SB203580 preincubation followed by 24-h exposure to HAs (3 mg/ml)) [%] | effect of inhibitor on HAs-induced apoptosis (cytotoxic action of HAs) (HL-60 cells)
C[S+]([O-])c1ccc(-c2nc(-c3ccc(F)cc3)c(-c3ccncc3)[nH]2)cc1 (stereo not shown) [SB203580, 4-[4-fluorophenyl]-2-[4-methylsulfinylphenyl]-5-[4-pyridyl]-1H-imidazole] | down-regulated | down-regulated | down-regulated | ~50 | 27.39 | –
Oc1c2ccccc2c2c3c(cccc13)N=N2 [SP600125, 1,9-pyrazoloanthrone] | – | – | – | – | – | did not reduce the cytotoxic action of HAs
COC[C@H]1OC(=O)c2coc3c2[C@@]1(C)C1=C(C3=O)[C@@H]2CCC(=O)[C@@]2(C)C[C@H]1OC(C)=O [wortmannin] | – | – | – | – | – | did not reduce the cytotoxic action of HAs
